Assay results from PubChem BioAssay (NCI).
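Each compound was tested at five concentrations against cells in 96-well plates for 48 hours. GI50 = concentration required for 50% inhibition of growth. TGI: concentration producing complete growth inhibition.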

Key:
Assay in all cases: NCI tumour cell line growth inhibition, 48 h
MDA-N = tested on: MDA-N
SNB-75 CNS = tested on: SNB-75 CNS
PC-3 prostate = tested on: PC-3 prostate
HOP-92 NSCLC = tested on: HOP-92 NSCLC
NCI-H522 lung = tested on: NCI-H522 lung
SF-539 CNS = tested on: SF-539 CNS
DU-145 prostate = tested on: DU-145 prostate
HCC-2998 colon = tested on: HCC-2998 colon
786-0 renal = tested on: 786-0 renal
DLD-1 colon = tested on: DLD-1 colon
DMS 114 small cell lung = tested on: DMS 114 small cell lung
SNB-78 CNS = tested on: SNB-78 CNS
KM20L2 colon = tested on: KM20L2 colon

| SMILES | TGI (MDA-N) | TGI (SNB-75 CNS) | TGI (PC-3 prostate) | TGI (HOP-92 NSCLC) | TGI (NCI-H522 lung) | TGI (SF-539 CNS) | TGI (DU-145 prostate) | TGI (HCC-2998 colon) | TGI (786-0 renal) | TGI (DLD-1 colon) | TGI (DMS 114 small cell lung) | TGI (SNB-78 CNS) | GI50 (HCC-2998 colon) | GI50 (SNB-75 CNS) | GI50 (PC-3 prostate) | GI50 (HOP-92 NSCLC) | GI50 (NCI-H522 lung) | GI50 (SF-539 CNS) | GI50 (DU-145 prostate) | TGI (KM20L2 colon) |
| --- | --- | --- | --- | --- | --- | --- | --- | --- | --- | --- | --- | --- | --- | --- | --- | --- | --- | --- | --- | --- |
| C/C(=N\NC(=S)N(C)C)c1nc2ncccc2[nH]1 | > 100 µM | > 100 µM | > 100 µM | 0.928 µM | 91.7 µM | 5.11 µM | > 100 µM | – | – | – | – | – | – | – | – | – | – | – | – | – |
| NNC(=O)CCSc1ccccc1 | > 100 µM | > 100 µM | > 100 µM | – | > 100 µM | > 100 µM | > 100 µM | > 100 µM | > 100 µM | – | – | – | – | – | – | – | – | – | – | – |
| CCCn1cc2c(SC)nc(SC)nc2n1 | – | > 100 µM | – | > 100 µM | – | > 100 µM | – | > 100 µM | – | > 100 µM | > 100 µM | > 100 µM | – | – | – | – | – | – | – | – |
| COc1ccc(C(O)(c2ccccc2)c2nccc3ccccc23)cc1 (stereo not drawn) | > 100 µM | – | > 100 µM | – | 30.7 µM | – | > 100 µM | – | > 100 µM | – | – | – | – | – | – | – | – | – | – | – |
| O=C(Nc1ccc(-n2cc(-c3ccncc3)c(-c3ccc(O)c(Cl)c3)n2)cc1)Nc1ccc(Cl)c(C(F)(F)F)c1 | – | 14.3 µM | 8.74 µM | 5 µM | 13.4 µM | 12.5 µM | 18 µM | 20.1 µM | – | – | – | – | 4.65 µM | 2.59 µM | 2.49 µM | 1.82 µM | 2.54 µM | 2.58 µM | 4.99 µM | – |
| c1ccc(C(NC2=NCCO2)c2ccccc2)cc1 | > 10 µM | > 10 µM | > 10 µM | – | > 10 µM | > 10 µM | > 10 µM | > 10 µM | – | – | – | – | – | – | – | – | – | – | – | – |
| O=C(O)CCc1nc2ccccc2[nH]1 | > 100 µM | > 100 µM | > 100 µM | > 100 µM | > 100 µM | > 100 µM | > 100 µM | > 100 µM | > 100 µM | – | – | – | – | – | – | – | – | – | – | – |
| OCCCNc1ncnc2[nH]ncc12 | > 100 µM | > 100 µM | > 100 µM | > 100 µM | > 100 µM | > 100 µM | > 100 µM | > 100 µM | > 100 µM | – | – | – | – | – | – | – | – | – | – | – |
| CCOC(=O)C(Cc1cn(C(C)=O)c2ccccc12)P(=O)(OCC)OCC (stereo not drawn) | > 100 µM | > 100 µM | > 100 µM | > 100 µM | > 100 µM | – | > 100 µM | > 100 µM | – | – | – | – | – | – | – | – | – | – | – | – |
| C/C(=N\NC(=S)NCCCCNC(=S)N/N=C(\C)c1ccccn1)c1ccccc1 | > 100 µM | 9.92 µM | > 100 µM | > 57.3 µM | 30.7 µM | 3.86 µM | > 50 µM | > 100 µM | – | – | – | – | – | – | – | – | – | – | – | – |
| Cc1[nH]c(=O)[nH]c(=O)c1/C=C/C(=O)NC(CO)CS(=O)Cc1ccccc1 (stereo not drawn) | – | > 300 µM | – | > 300 µM | > 300 µM | > 300 µM | – | > 300 µM | – | > 300 µM | > 300 µM | > 300 µM | – | – | – | – | – | – | – | > 300 µM |
| CC(C)C(=O)CC(c1ccc(Cl)cc1)N1N=C(C(C)C)CC1c1ccc(Cl)cc1 (stereo not drawn) | – | > 100 µM | – | > 100 µM | > 100 µM | > 42.7 µM | – | > 100 µM | – | – | > 100 µM | > 100 µM | – | – | – | – | – | – | – | > 100 µM |
